Nine molecules from patent publication US12391733B2, “Stapled intracellular-targeting antimicrobial peptides to treat infection” (priority 2016, dated 2025) can be followed below.

Positions of bridges follow the written chain, without caps; N, C: chain ends. Non-standard residues stand in square brackets, D forms with d. Residues, ends and D or L forms follow the SMILES beside them. R8 = C=CCCCCCC[C@@](C)(N)C(=O)O; S5 = C=CCCC[C@](C)(N)C(=O)O Bounds are passed on as bounds.

A short description of one series: circular dichroism. Particulars: 10 mM phosphate buffer; pH 7.4; ns °C; 100 uM.
In series [1] the test system is human red blood cells (RBCs). Format: cell-based. Particulars: for % Hemolysis at 50 μg/ml: red cells of human, 1 h. An excerpt:
One of the key obstacles that have long impeded the use of AMPs in systemic infections such as sepsis is their tendency to lyse human cells, such as red blood cells (RBCs). Thus, it is critical to minimize hemolytic activity as much as possible to achieve a therapeutic window. […] Of note, in those circumstances where hydrocarbon staples increase hemolytic activity due to increasing hydrophobicity, the alkene moiety can be modified, e.g., by dihydroxylation, to install hydrophilic residues and potentially mitigate hemolysis.
Hemolytic Activity Assay For the determination of hemolytic activity, the following protocol was applied: human blood samples were centrifuged to isolate red blood cells (RBCs), which were then washed and suspended in phosphate-buffered saline to yield a 1% (v/v) suspension. This suspension was then added to serial dilutions of peptide stocks in water in clear round-bottom polypropylene 96-well plates and the plates incubated for 1 hour at 37° C. After incubation, the plates were centrifuged and the supernatant isolated to determine the amount of hemoglobin released using a spectrophotometer (570 nm). The minimum hemolytic concentration (MHC) was determined by assessing the peptide concentration at which there was less than 1% hemoglobin release.

Another series has as its system E. coli. The class given is cell-based, Escherichia coli. As to conditions: for Antimicrobial Activity NIC (μg/ml) E. coli: Table 1, microbroth dilution, refined MHB, 20-24 hours at 37° C. On the procedure: Antimicrobial Activity Assay The following microbroth dilution protocol was adapted to determine the MIC of each peptide. First, Mueller-Hinton broth (MHB) was passed through an anion exchange column to remove polyanionic species and generate refined MHB. This refined broth was then used in the standard microbroth dilution protocol devised by Hancock et al. for 96 well plates. […] Briefly, bacterial cells were grown overnight in refined MHB at 37° C. and then diluted and allowed to grow again for several hours. Serial dilutions of peptide stocks in water (10 μl) were prepared using clear round-bottom polypropylene 96-well plates. Then 90 μl of bacteria in refined MHB was added to give a final inoculum of 5×10^5 CFU/ml. The plates were then covered with porous tape to reduce evaporation, and incubated for 20-24 hours at 37° C.
For orientation: In broth dilution the organism is exposed to a series of concentrations in liquid medium.

In turn, `CC(C)C[C@H](NC(=O)CNC(=O)[C@H](C)NC(=O)[C@H](CCCNC(=N)N)NC(=O)[C@H](CO)NC(=O)[C@H](CO)NC(=O)[C@H](CCCNC(=N)N)NC(=O)[C@@H](N)[C@@H](C)O)C(=O)N[C@@H](CCC(N)=O)C(=O)N[C@@H](Cc1c[nH]c2ccccc12)C(=O)N1CCC[C@H]1C(=O)N[C@H](C(=O)NCC(=O)N[C@@H](CCCNC(=N)N)C(=O)N[C@@]1(C)CCCC=CCCC[C@@](C)(C(=O)N[C@@H](CCCNC(=N)N)C(=O)N[C@@H](CCCCN)C(N)=O)NC(=O)[C@H](CC(C)C)NC(=O)[C@H](CCCNC(=N)N)NC(=O)[C@H](Cc2c[nH]cn2)NC1=O)C(C)C` [BFStap(i + 4)3] (H-TRSSRAGLQWPVGR[S5]HRL[S5]RK-NH2; staple 15-19; N-terminus and C-terminus assumed) displayed a helicity in the series “circular dichroism” of 4.3%. The “% Hemolysis at 50 μg/ml” value in series [1] came out at 2.9%. In addition, the “Antimicrobial Activity NIC (μg/ml) E. coli” value (“Antimicrobial Activity NIC” for short) in the series with E. coli amounted to 25.0 µg/mL.

As for `CC(C)C[C@H](NC(=O)CNC(=O)[C@H](C)NC(=O)[C@H](CCCNC(=N)N)NC(=O)[C@H](CO)NC(=O)[C@H](CO)NC(=O)[C@H](CCCNC(=N)N)NC(=O)[C@@H](N)[C@@H](C)O)C(=O)N[C@@H](CCC(N)=O)C(=O)N[C@@H](Cc1c[nH]c2ccccc12)C(=O)N1CCC[C@H]1C(=O)N[C@H](C(=O)N[C@]1(C)CCCCCCC=CCCC[C@@](C)(C(=O)N[C@@H](CCCCN)C(N)=O)NC(=O)[C@H](CC(C)C)NC(=O)[C@H](CC(C)C)NC(=O)[C@H](CCCNC(=N)N)NC(=O)[C@H](Cc2c[nH]cn2)NC(=O)[C@H](C(C)C)NC(=O)[C@H](CCCNC(=N)N)NC1=O)C(C)C` [BFStap(i + 7)2] (H-TRSSRAGLQWPV[R8]RVHRLL[S5]K-NH2; staple 13-20; N-terminus and C-terminus assumed), the helicity in “circular dichroism” amounted to 15.6%. In addition, the “% Hemolysis at 50 μg/ml” value in series [1] turned out to be 3.1%. In addition, the “Antimicrobial Activity NIC” value in the series on E. coli was found to be 33.3 µg/mL.

Consider `CC(C)C[C@H](NC(=O)CNC(=O)[C@H](C)NC(=O)[C@H](CCCNC(=N)N)NC(=O)[C@H](CO)NC(=O)[C@H](CO)NC(=O)[C@H](CCCNC(=N)N)NC(=O)[C@@H](N)[C@@H](C)O)C(=O)N[C@@H](CCC(N)=O)C(=O)N[C@@H](Cc1c[nH]c2ccccc12)C(=O)N1CCC[C@H]1C(=O)N[C@H](C(=O)NCC(=O)N[C@@]1(C)CCCC=CCCC[C@@](C)(C(=O)N[C@@H](CC(C)C)C(=O)N[C@@H](CCCNC(=N)N)C(=O)N[C@@H](CCCCN)C(N)=O)NC(=O)[C@H](CCCNC(=N)N)NC(=O)[C@H](Cc2c[nH]cn2)NC(=O)[C@H](C(C)C)NC1=O)C(C)C` [BFStap(i + 4)4] (H-TRSSRAGLQWPVG[S5]VHR[S5]LRK-NH2; staple 14-18; N-terminus and C-terminus assumed), for which the helicity in “circular dichroism” is 6%. In addition, the “% Hemolysis at 50 μg/ml” value in series [1] amounted to 2.9%. Besides, the “Antimicrobial Activity NIC” value with E. coli was 29.2 µg/mL.

`CC(C)C[C@H](NC(=O)CNC(=O)[C@H](C)NC(=O)[C@H](CCCNC(=N)N)NC(=O)[C@H](CO)NC(=O)[C@H](CO)NC(=O)[C@H](CCCNC(=N)N)NC(=O)[C@@H](N)[C@@H](C)O)C(=O)N[C@@]1(C)CCCC=CCCC[C@@](C)(C(=O)N[C@@H](CCCNC(=N)N)C(=O)N[C@H](C(=O)N[C@@H](Cc2c[nH]cn2)C(=O)N[C@@H](CCCNC(=N)N)C(=O)N[C@@H](CC(C)C)C(=O)N[C@@H](CC(C)C)C(=O)N[C@@H](CCCNC(=N)N)C(=O)N[C@@H](CCCCN)C(N)=O)C(C)C)NC(=O)[C@H](C(C)C)NC(=O)[C@@H]2CCCN2C(=O)[C@H](Cc2c[nH]c3ccccc23)NC1=O` [BFStap(i + 4)7] (H-TRSSRAGL[S5]WPV[S5]RVHRLLRK-NH2; staple 9-13; N-terminus and C-terminus assumed) yielded a helicity in the series “circular dichroism” of 6.9%. In series [1], the “hemolytic activity (in words)” value is reported as “low hemolytic activity” and the “% Hemolysis at 50 μg/ml” value was determined as 3.4%. Moreover, the “Antimicrobial Activity NIC” value in the series on E. coli was determined as 6.3 µg/mL. Further, in the series with E. coli (compared to unstapled buforin II (F10W) and buforin II), the “antimicrobial activity (in words)” value was “greatest increase in antimicrobial activity”.

Turning to `CC(C)C[C@@H]1NC(=O)CNC(=O)[C@](C)(NC(=O)[C@H](CCCNC(=N)N)NC(=O)[C@H](CO)NC(=O)[C@H](CO)NC(=O)[C@H](CCCNC(=N)N)NC(=O)[C@@H](N)[C@@H](C)O)CCCCCCC=CCCC[C@@](C)(C(=O)N[C@@H](CCCNC(=N)N)C(=O)N[C@H](C(=O)N[C@@H](Cc2c[nH]cn2)C(=O)N[C@@H](CCCNC(=N)N)C(=O)N[C@@H](CC(C)C)C(=O)N[C@@H](CC(C)C)C(=O)N[C@@H](CCCNC(=N)N)C(=O)N[C@@H](CCCCN)C(N)=O)C(C)C)NC(=O)[C@H](C(C)C)NC(=O)[C@@H]2CCCN2C(=O)[C@H](Cc2c[nH]c3ccccc23)NC(=O)[C@H](CCC(N)=O)NC1=O` [BFStap(i + 7)7] (H-TRSSR[R8]GLQWPV[S5]RVHRLLRK-NH2; staple 6-13; N-terminus and C-terminus assumed), the helicity in “circular dichroism” was 11.6%. The “% Hemolysis at 50 μg/ml” value in series [1] was found to be 3.0%. Further, the “Antimicrobial Activity NIC” value in the series with E. coli turned out to be 22.9 µg/mL.

In the series “circular dichroism”, `CC(C)C[C@H](NC(=O)CNC(=O)[C@H](C)NC(=O)[C@H](CCCNC(=N)N)NC(=O)[C@H](CO)NC(=O)[C@H](CO)NC(=O)[C@H](CCCNC(=N)N)NC(=O)[C@@H](N)[C@@H](C)O)C(=O)N[C@@H](CCC(N)=O)C(=O)N[C@@H](Cc1c[nH]c2ccccc12)C(=O)N1CCC[C@H]1C(=O)N[C@H](C(=O)N[C@@]1(C)CCCC=CCCC[C@@](C)(C(=O)N[C@@H](CC(C)C)C(=O)N[C@@H](CC(C)C)C(=O)N[C@@H](CCCNC(=N)N)C(=O)N[C@@H](CCCCN)C(N)=O)NC(=O)[C@H](Cc2c[nH]cn2)NC(=O)[C@H](C(C)C)NC(=O)[C@H](CCCNC(=N)N)NC1=O)C(C)C` [BFStap(i + 4)5] (H-TRSSRAGLQWPV[S5]RVH[S5]LLRK-NH2; staple 13-17; N-terminus and C-terminus assumed) returned a helicity of 8.8%. In series [1], the “% Hemolysis at 50 μg/ml” value is 3.0%. The “Antimicrobial Activity NIC” value in the series with E. coli came out at 66.7 µg/mL.

For `CC(C)C[C@H](NC(=O)CNC(=O)[C@H](C)NC(=O)[C@H](CCCNC(=N)N)NC(=O)[C@H](CO)NC(=O)[C@H](CO)NC(=O)[C@H](CCCNC(=N)N)NC(=O)[C@@H](N)[C@@H](C)O)C(=O)N[C@]1(C)CCCCCCC=CCCC[C@@](C)(C(=O)N[C@@H](CCCNC(=N)N)C(=O)N[C@@H](CC(C)C)C(=O)N[C@@H](CC(C)C)C(=O)N[C@@H](CCCNC(=N)N)C(=O)N[C@@H](CCCCN)C(N)=O)NC(=O)[C@H](C(C)C)NC(=O)[C@H](CCCNC(=N)N)NC(=O)CNC(=O)[C@H](C(C)C)NC(=O)[C@@H]2CCCN2C(=O)[C@H](Cc2c[nH]c3ccccc23)NC1=O` [BFStap(i + 7)4] (H-TRSSRAGL[R8]WPVGRV[S5]RLLRK-NH2; staple 9-16; N-terminus and C-terminus assumed), the helicity in “circular dichroism” came to 2.4%. In addition, the “% Hemolysis at 50 μg/ml” value in series [1] is listed as 57.0%. The “Antimicrobial Activity NIC” value with E. coli came to 3.1 µg/mL.

Molecule `CC(C)C[C@H](NC(=O)CNC(=O)[C@H](C)NC(=O)[C@]1(C)CCCC=CCCC[C@](C)(N)C(=O)N[C@@H](CCCNC(=N)N)C(=O)N[C@@H](CO)C(=O)N[C@@H](CO)C(=O)N1)C(=O)N[C@@H](CCC(N)=O)C(=O)N[C@@H](Cc1c[nH]c2ccccc12)C(=O)N1CCC[C@H]1C(=O)N[C@H](C(=O)NCC(=O)N[C@@H](CCCNC(=N)N)C(=O)N[C@H](C(=O)N[C@@H](Cc1c[nH]cn1)C(=O)N[C@@H](CCCNC(=N)N)C(=O)N[C@@H](CC(C)C)C(=O)N[C@@H](CC(C)C)C(=O)N[C@@H](CCCNC(=N)N)C(=O)N[C@@H](CCCCN)C(N)=O)C(C)C)C(C)C` [BFStap(i + 4)13] (H-[S5]RSS[S5]AGLQWPVGRVHRLLRK-NH2; staple 1-5; N-terminus and C-terminus assumed) returned a helicity in the series “circular dichroism” of 0%. Also, in series [1], the “% Hemolysis at 50 μg/ml” value was determined as 2.4%. In addition, the “Antimicrobial Activity NIC” value in the series on E. coli is above 100 µg/mL.

The molecule `CC(C)C[C@@H]1NC(=O)CNC(=O)[C@H](C)NC(=O)[C@H](CCCNC(=N)N)NC(=O)[C@H](CO)NC(=O)[C@H](CO)NC(=O)[C@](C)(NC(=O)[C@@H](N)[C@@H](C)O)CCCCCCC=CCCC[C@@](C)(C(=O)N[C@@H](Cc2c[nH]c3ccccc23)C(=O)N2CCC[C@H]2C(=O)N[C@H](C(=O)NCC(=O)N[C@@H](CCCNC(=N)N)C(=O)N[C@H](C(=O)N[C@@H](Cc2c[nH]cn2)C(=O)N[C@@H](CCCNC(=N)N)C(=O)N[C@@H](CC(C)C)C(=O)N[C@@H](CC(C)C)C(=O)N[C@@H](CCCNC(=N)N)C(=O)N[C@@H](CCCCN)C(N)=O)C(C)C)C(C)C)NC1=O` [BFStap(i + 7)9] (H-T[R8]SSRAGL[S5]WPVGRVHRLLRK-NH2; staple 2-9; N-terminus and C-terminus assumed) showed a helicity in “circular dichroism” of 0%. For the same molecule, in series [1], the “% Hemolysis at 50 μg/ml” value came to 4.3%. The “Antimicrobial Activity NIC” value in the series with E. coli is 41.7 µg/mL.
